Experimental findings from patent publication US11518764B2, “Substituted heteroaryls as inhibitors of the BCL6 BTB domain protein-protein interaction” (Ontario Institute for Cancer Research (OICR), priority 2018, dated 2022) are described below.

One experiment concerns the target BCL6 BTB domain (Homo sapiens (Human), UniProt P41182). The experiment can be described thus: Surface plasmon resonance (SPR) assay. Type of experiment: binding. The note with it: BCL6 BTB domain captured on SA chip, single cycle kinetics.
Experiment [1] deals with BCL6 reporter construct (3xBCL6-TK-Luc) in SuDHL4 cells. The experiment can be described thus: Cell-based luciferase assay. The procedure: Cell-Based Luciferase Assay
A BCL6 reporter construct containing three copies of the consensus BCL6 binding site, the TK promoter, and the firefly luciferase gene was stably expressed in SuDHL4 cells after lentivirus infection and selection with Blasticidin. SuDHL4-3×BCL6-TK-Luc cells were seeded into a Viewplate 384-well assay dish at 15,000 cells/well in 25 ul medium (Alpha-MEM high glucose containing 10% FBS, 25 mM HEPES, […] GlutaMAX, 100 ug/ml Normocin, and […] Gentamycin, Invitrogen). A HP D300 digital dispenser was used to dose cells with DMSO or test compounds across a 10-point range of concentrations (high dose of 10 uM), and cultures were grown in a humidified 5% CO2 incubator at 37° C. After two days, plates were removed from the incubator and equilibrated to room temperature. An equal volume of neolite reporter gene assay reagent was added to each well, and samples were processed according to manufacturer's instructions (Perkin Elmer). Luminescent signal was measured using an Envision plate reader equipped with a US-Luminescence detector.

Another experiment has as its system Karpas422 cells. The experiment in a line: Tumor cell growth inhibition assay. It is filed as cell-based. The procedure: Tumor Cell Growth inhibition Assay
Karpas422 cells were seeded into a 96-well plate at 2,000 cells/well in 150 ul medium (Alpha-MEM containing 10% FBS, […] Normocin, and […] Gentamycin, Invitrogen). A HP D300 digital dispenser was used to dose cells with DMSO or test compounds across a 10-point range of concentrations (high dose of 5 uM), and cultures were grown in a humidified 5% CO2 incubator at 37° C. After six days, plates were removed from incubator and equilibrated to room temperature. An equal volume of ATPlite assay reagent was added to each well, and samples were processed according to manufacturer's instructions (Perkin Elmer). Luminescent signal was measured using an Envision plate reader equipped with a US-Luminescence detector.

Where [2] appears, read: Homo sapiens, SU-DHL-4, 48 h, read-out: Luciferase-Assay EC50, uM), SuDHL4-3xBCL6-TK-Luc cells, two days, high dose 10 uM.
Setting [3] is: Homo sapiens, KARPAS-422, 144 h, read-out: Tumor Growth Inhibition in Karpas-422 (IC50, uM), Karpas422 cells, six days, ATPlite.
The mark [4] stands for this setting: read-out: Tumor Growth Inhibition in Karpas-422 (IC50), Karpas422 cells, six days, ATPlite.

Like-named read-outs stand apart in the source and are kept apart here.

In turn, `Cc1cc(-c2cn(CC(=O)Nc3cc(N4CCOCC4)ncc3Cl)c3ncn(C)c(=O)c23)cc(C(N)=O)c1O` [Compound I-4, 5-(7-(2-((5-chloro-2-morpholinopyridin-4-yl)amino)-2-oxoethyl)-3-methyl-4-oxo-4,7-dihydro-3H-pyrrolo[2,3-d]pyrimidin-5-yl)-2-hydroxy-3-methylbenzamide] displayed a Kd on BCL6 BTB domain of 279 nM. For the same molecule, in experiment [1] (setting [2]), the concentration for a half-maximal effect (EC50) was 1.8 µM. Further, the IC50 in the experiment with Karpas422 cells (setting [3]) is 0.525 µM. As for `C[C@@H]1CN(c2cc(NC(=O)Cn3cc(-c4cc(Cl)c(O)c(C(N)=O)c4)c4c(=O)n(C)cnc43)c(Cl)cn2)C[C@H](C)O1` [Compound I-13], on BCL6 BTB domain, the Kd came to 22 nM. Besides, the EC50 in experiment [1] (setting [2]) was determined as 0.17 µM. Further, the IC50 with Karpas422 cells (setting [3]) worked out at 0.18 µM. In the case of `C[C@H]1COCCN1c1cc(NC(=O)Cn2cc(-c3cc(Cl)c(O)c(C(N)=O)c3)c3c(=O)n(C)cnc32)c(Cl)cn1` [Compound I-35], in the experiment on Karpas422 cells (setting [4]), the IC50 came to 0.133 µM. Turning to `Cn1cnc2c(c(-c3cc(Cl)c(O)c(C(N)=O)c3)cn2CC(=O)Nc2cc(N3CCC(F)C3)ncc2Cl)c1=O` (centres unmarked) [Compound I-67], the Kd at BCL6 BTB domain turned out to be 14 nM. The EC50 in experiment [1] (setting [2]) came to 0.296 µM. Moreover, the IC50 with Karpas422 cells (setting [3]) was 0.267 µM. On to `Cn1cnc2c(c(-c3cc(Cl)c(O)c(C(N)=O)c3)cn2CC(=O)Nc2cc(N3CCOC(C(F)(F)F)C3)ncc2Cl)c1=O` (centres unmarked) [Compound I-69], for which the Kd at BCL6 BTB domain stood at 72 nM. Moreover, the EC50 in experiment [1] (read-out: Luciferase-Assay EC50, SuDHL4-3xBCL6-TK-Luc cells, two days, high dose 10 uM) is 0.269 µM. In addition, the IC50 in the experiment on Karpas422 cells (setting [4]) stood at 0.22 µM. `C[C@@H]1CN(CCN(C)c2cc(NC(=O)Cn3cc(-c4cc(Cl)c(O)c(C(N)=O)c4)c4c(=O)n(C)cnc43)c(Cl)cn2)C[C@H](C)O1` [Compound I-73] gave a Kd at BCL6 BTB domain of 19 nM. For the same molecule, in experiment [1] (setting [2]), the EC50 is 0.233 µM. The IC50 in the experiment on Karpas422 cells (setting [3]) was determined as 0.165 µM.

`Cn1cnc2c(c(-c3cc(C(N)=O)c(O)cn3)cn2CC(=O)Nc2cc(N3CCOCC3)ncc2Cl)c1=O` [Compound I-143, 2-(7-(2-((5-chloro-2-morpholinopyridin-4-yl)amino)-2-oxoethyl)-3-methyl-4-oxo-4,7-dihydro-3H-pyrrolo[2,3-d]pyrimidin-5-yl)-5-hydroxyisonicotinamide] gave a Kd at BCL6 BTB domain of 250 nM. For the same molecule, the EC50 in experiment [1] (setting [2]) came to 6.2 µM.

Turning to `CCOc1cc(-c2cn(CC(=O)Nc3cc(N4CCOC[C@@H]4C)ncc3Cl)c3ncn(C)c(=O)c23)cc(C(N)=O)c1O` [Compound I-144], the EC50 in experiment [1] (setting [2]) was found to be 10 µM. The IC50 in the experiment with Karpas422 cells (setting [3]) was determined as 10 µM. In the case of `Cn1cnc2c(c(-c3cc(Cl)c(O)c(C(N)=O)c3)cn2CC(=O)Nc2cc(N3CCn4cc(C(F)(F)F)nc4C3)ncc2Cl)c1=O` [Compound I-165], the Kd at BCL6 BTB domain came out at 14.9 nM. In addition, in experiment [1] (setting [2]), the EC50 stood at 0.466 µM.

Turning to `CN1CCN(c2ccc(Cl)c(NC(=O)Cn3cc(-c4cc(Cl)c(O)c(C(N)=O)c4)c4c(=O)n(C)cnc43)n2)CC1` [Compound I-175], binding on BCL6 BTB domain was characterised by a dissociation constant (Kd) of 429 nM. Also, the IC50 in the experiment with Karpas422 cells (setting [3]) worked out at 4.79 µM. The molecule `C[C@H]1CN(C)CCN1c1cc(NC(=O)Cn2cc(-c3cc(F)c(O)c(C(N)=O)c3)c3c(=O)n(C)c(C(F)(F)F)nc32)c(Cl)cn1` [Compound I-233] yielded a dissociation constant (Kd) on BCL6 BTB domain of 23.7 nM. The EC50 in experiment [1] (setting [2]) came to 0.161 µM. Regarding `C[C@H]1COCCN1c1cc(NC(=O)Cn2cc(-c3cc(Cl)c(O)c(C(N)=O)c3)c3c(=O)n(C)cnc32)c(Cl)cn1` [Compound I-239], in the experiment on Karpas422 cells (setting [4]), the IC50 turned out to be 0.316 µM.

The molecule `C[C@H]1CN(CC(F)(F)F)CCN1c1cc(NC(=O)Cn2cc(-c3cc(Cl)c(O)c(C(N)=O)c3)c3c(=O)n(C)c(C(F)(F)F)nc32)c(Cl)cn1` [Compound I-253] showed a Kd on BCL6 BTB domain of 2100 nM. The same measure, in the same setting: the same measure for `Cn1cnc2c(c(-c3cc(Cl)c(O)c(C(N)=O)c3)cn2CC(=O)N[C@@H]2CCCC[C@H]2OC(=O)C(F)(F)F)c1=O` [Compound I-254, (1R,2R)-2-(2-(5-(3-carbamoyl-5-chloro-4-hydroxyphenyl)-3-methyl-4-oxo-3,4-dihydro-7H-pyrrolo[2,3-d]pyrimidin-7-yl)acetamido)cyclohexyl 2,2,2-trifluoroacetate]: 3880 nM. The same measure, in the same setting: as for `Cn1cnc2c(c(-c3cc(Cl)c(O)c(C(N)=O)c3)cn2CC(=O)NC2CCCc3ccncc32)c1=O` (centres unmarked) [Compound I-255], the figure is 6110 nM; as for `Cn1cnc2c(c(-c3cc(Cl)c(O)c(C(N)=O)c3)cn2CC(=O)NC2CCCc3ncccc32)c1=O` (centres unmarked) [Compound I-257], 3640 nM. `C[C@H]1COCCN1c1cc(NC(=O)Cn2cc(-c3cc(Cl)c(O)c(C(N)=O)c3)c3c(=O)n(C)c(N(C)C)nc32)c(Cl)cn1` [Compound I-263, (S)-3-chloro-5-(7-(2-((5-chloro-2-(3-methylmorpholino)pyridin-4-yl)amino)-2-oxoethyl)-2-(dimethylamino)-3-methyl-4-oxo-4,7-dihydro-3H-pyrrolo[2,3-d]pyrimidin-5-yl)-2-hydroxybenzamide]: the EC50 in experiment [1] (setting [2]) stood at 2.07 µM. In the experiment with Karpas422 cells (setting [3]), the IC50 was 0.745 µM. For the molecule `COc1c(O)c(C(N)=O)cc(-c2cn(CC(=O)Nc3cc(N4CCN(C)C[C@@H]4C)ncc3Cl)c3nc(C(F)(F)F)n(C)c(=O)c23)c1F` [Compound I-266], in experiment [1] (setting [2]), the EC50 came out at 1.61 µM. In the experiment with Karpas422 cells (setting [3]), the IC50 stood at 2.78 µM.

`CNc1nc2c(c(-c3cc(Cl)c(O)c(C(N)=O)c3)cn2CC(=O)Nc2cc(N3CCOC[C@@H]3C)ncc2Cl)c(=O)n1C` [Compound I-268, (S)-3-chloro-5-(7-(2-((5-chloro-2-(3-methylmorpholino)pyridin-4-yl)amino)-2-oxoethyl)-3-methyl-2-(methylamino)-4-oxo-4,7-dihydro-3H-pyrrolo[2,3-d]pyrimidin-5-yl)-2-hydroxybenzamide]: in experiment [1] (setting [2]), the EC50 was determined as 1.8 µM. In addition, the IC50 with Karpas422 cells (setting [3]) was 1.86 µM.

With `CN(C)c1cc(NC(=O)Cn2cc(-c3cc(Cl)c(O)c(C(N)=O)c3)c3c(=O)n(C)c(Nc4cc(N(C)C)ncc4Cl)nc32)c(Cl)cn1` [Compound I-291, 3-chloro-5-(2-((5-chloro-2-(dimethylamino)pyridin-4-yl)amino)-7-(2-((5-chloro-2-(dimethylamino)pyridin-4-yl)amino)-2-oxoethyl)-3-methyl-4-oxo-4,7-dihydro-3H-pyrrolo[2,3-d]pyrimidin-5-yl)-2-hydroxybenzamide], in experiment [1] (setting [2]), the EC50 was determined as 1.76 µM. In addition, the IC50 with Karpas422 cells (setting [3]) amounted to 0.908 µM. On the same counts, the results for `C[C@H]1CN(CC2CC2)CCN1c1cc(NC(=O)Cn2cc(-c3cc(C(N)=O)c(O)c(F)c3F)c3c(=O)n(C)cnc32)c(Cl)cn1` [Compound I-307] are 0.464 µM and 0.676 µM. On the same counts, the results for `Cc1nc2c(c(-c3cc(Cl)c(O)c(C(N)=O)c3)cn2CC(=O)Nc2cc(N3CCN(C4COC4)C[C@@H]3C)ncc2Cl)c(=O)n1C` [Compound I-336] are 0.0383 µM and 0.0502 µM.

`Cc1nc2c(c(-c3cc(Cl)c(O)c(C(N)=O)c3)cn2CC(=O)Nc2ccncc2Br)c(=O)n1C` [Compound I-337]: the EC50 in experiment [1] (setting [2]) amounted to 1.55 µM. In the experiment with Karpas422 cells (setting [3]), the IC50 was determined as 1.93 µM. On to `Cc1nc2c(c(-c3cc(Cl)c(O)c(C(N)=O)c3)cn2CC(=O)Nc2cc(N3CCN(CC4CC4)C[C@@H]3C)ncc2Cl)c(=O)n1C` [Compound I-338], for which the EC50 in experiment [1] (setting [2]) was 0.163 µM. Moreover, the IC50 in the experiment on Karpas422 cells (setting [3]) was 0.231 µM.

As for `Cc1nc2c(c(-c3cc(C(N)=O)c(O)c(F)c3F)cn2CC(=O)Nc2cc(N3CCN(CC4CC4)C[C@@H]3C)ncc2Cl)c(=O)n1C` [Compound I-339], in experiment [1] (setting [2]), the EC50 amounted to 0.454 µM. For the same molecule, the IC50 in the experiment with Karpas422 cells (setting [3]) stood at 0.237 µM. On the same counts, the results for `[2H]C1(C([2H])([2H])N2CCN(c3cc(NC(=O)Cn4cc(-c5cc(C(N)=O)c(O)c(F)c5F)c5c(=O)n(C)cnc54)c(Cl)cn3)[C@@H](C)C2)CC1` [Compound I-370] are 0.61 µM and 1.31 µM. `CN1CC2CC(C1)N2c1cc(NC(=O)Cn2cc(-c3cc(F)c(O)c(C(N)=O)c3)c3c(=O)n(C)cnc32)c(Cl)cn1` [Compound I-450] gave a Kd at BCL6 BTB domain of 43.6 nM.

At BCL6 BTB domain, `CN1CC2CC(C1)N2c1cc(NC(=O)Cn2cc(-c3cc(C(N)=O)c(O)c(F)c3F)c3c(=O)n(C)cnc32)c(Cl)cn1` [Compound I-451] came in with a Kd of 157 nM. Same read-out and setting: as for `CN1CCC2(C1)CN(c1cc(NC(=O)Cn3cc(-c4cc(C(N)=O)c(O)c(F)c4F)c4c(=O)n(C)cnc43)c(Cl)cn1)C2` [Compound I-485], the figure is 805 nM.

With “(S)-3-chloro-5-(7-(2-((5-chloro-2-(3-methylmorpholino)pyridin-4-yl)amino)-2-oxoethyl)-3-methyl-4-oxo-2-phenyl-4,7-dihydro-3H-pyrrolo[2,3-d]pyrimidin-5-yl)-2-hydroxybenzamide [Compound I-247]”, the EC50 in experiment [1] (SuDHL4-3xBCL6-TK-Luc cells, two days, high dose 10 uM, read-out: Luciferase-Assay EC50) is 15.2 µM. The IC50 in the experiment with Karpas422 cells (Karpas422 cells, six days, ATPlite, read-out: Tumor Growth Inhibition in Karpas-422 (IC50)) is 0.628 µM.
